For orientation: pIC50 means the IC50 on a negative log10 scale, so that one unit is a factor of ten.

pIC50: −log10 of the molar value.

Holding throughout (type): cell-based
For test [1], the target named is EGFR (A767_dupASV) expressing Ba/F3 stable cell line (Homo sapiens, UniProt P00533, DUP767-769, cells depend on it). The test can be described thus: Cellular proliferation (Alamar Blue) assay, EGFR (A767_dupASV) Ba/F3. Conditions: 72 hr, read-out: A767 IC50. As for the experimental part: (§1) Cell line details: • 1. EGFR(D770_N771insSVD) expressing Ba/F3 stable cell line • 2. EGFR (A767_dupASV) expressing Ba/F3 stable cell line • 3. A431 cells • 4. EGFR (H773insNPH) expressing Ba/F3 stable cell line • 5. HER2 (A775_G776insYVMA) expressing Ba/F3 stable cell line
(§2) • 1. Seed cells at 5000 for A431 and 15,000 cells for Ba/F3 in 100 μL/well in complete media (for A431: DMEM with 10% FBS and for Ba/F3 cells: RPMI with 10% FBS) in 96-well tissue culture plate. Leave outer wells without cells for background measurements. Incubate at 37 degree Celsius in 5% CO2 humidified incubator for 16-18 hours. • 2. Add 0.025 ml of 5X concentration compound dilution or DMSO control. Final compound concentration range is 10-0.0005 μM prepared in 3-fold serial dilutions. Incubate for 72 hr at 37 degree Celsius in 5% CO2 humidified incubator. • 3. Add 0.0125 ml Alamar Blue™ reagent to each well with multi-channel pipette and tap gently on each side of the plate to mix. Incubate for 3 hours at 37 degree Celsius in 5% CO2 humidified incubator. • 4. […] Data analysis was performed using XLfit 5.5.0.5.
Background: Resazurin is reduced to fluorescent resorufin, in cell work by metabolically active cells.

Another test deals with A431 cells. The test can be described thus: Cellular proliferation (Alamar Blue) assay, A431 cells. The conditions noted are these: Homo sapiens, A-431, 72 h, A431 cells; 72 hr; Alamar Blue; read-out: A431 IC50. As for the experimental part:
as §2

Test [2] deals with HER2 (A775_G776insYVMA) expressing Ba/F3 stable cell line (Homo sapiens, UniProt P04626, DUP772-775, cells depend on it). Description: Cellular proliferation (Alamar Blue) assay, HER2 (A775_G776insYVMA) Ba/F3. Conditions: HER2 (A775_G776insYVMA) Ba/F3 cells; 72 hr; Alamar Blue; read-out: YVMA IC50. As for the experimental part:
as §1, §2

The target in test [3] is EGFR(D770_N771insSVD) expressing Ba/F3 stable cell line (Homo sapiens, UniProt P00533, DUP768-770, cells depend on it). The test can be described thus: Cellular proliferation (Alamar Blue) assay, EGFR(D770_N771insSVD) Ba/F3. Conditions: 72 hr, read-out: D770 IC50. As for the experimental part: as §1, §2
Sequence of EGFR(D770_N771insSVD) expressing Ba/F3 stable cell line (P00533 with tags, fused parts or gaps DUP768-770): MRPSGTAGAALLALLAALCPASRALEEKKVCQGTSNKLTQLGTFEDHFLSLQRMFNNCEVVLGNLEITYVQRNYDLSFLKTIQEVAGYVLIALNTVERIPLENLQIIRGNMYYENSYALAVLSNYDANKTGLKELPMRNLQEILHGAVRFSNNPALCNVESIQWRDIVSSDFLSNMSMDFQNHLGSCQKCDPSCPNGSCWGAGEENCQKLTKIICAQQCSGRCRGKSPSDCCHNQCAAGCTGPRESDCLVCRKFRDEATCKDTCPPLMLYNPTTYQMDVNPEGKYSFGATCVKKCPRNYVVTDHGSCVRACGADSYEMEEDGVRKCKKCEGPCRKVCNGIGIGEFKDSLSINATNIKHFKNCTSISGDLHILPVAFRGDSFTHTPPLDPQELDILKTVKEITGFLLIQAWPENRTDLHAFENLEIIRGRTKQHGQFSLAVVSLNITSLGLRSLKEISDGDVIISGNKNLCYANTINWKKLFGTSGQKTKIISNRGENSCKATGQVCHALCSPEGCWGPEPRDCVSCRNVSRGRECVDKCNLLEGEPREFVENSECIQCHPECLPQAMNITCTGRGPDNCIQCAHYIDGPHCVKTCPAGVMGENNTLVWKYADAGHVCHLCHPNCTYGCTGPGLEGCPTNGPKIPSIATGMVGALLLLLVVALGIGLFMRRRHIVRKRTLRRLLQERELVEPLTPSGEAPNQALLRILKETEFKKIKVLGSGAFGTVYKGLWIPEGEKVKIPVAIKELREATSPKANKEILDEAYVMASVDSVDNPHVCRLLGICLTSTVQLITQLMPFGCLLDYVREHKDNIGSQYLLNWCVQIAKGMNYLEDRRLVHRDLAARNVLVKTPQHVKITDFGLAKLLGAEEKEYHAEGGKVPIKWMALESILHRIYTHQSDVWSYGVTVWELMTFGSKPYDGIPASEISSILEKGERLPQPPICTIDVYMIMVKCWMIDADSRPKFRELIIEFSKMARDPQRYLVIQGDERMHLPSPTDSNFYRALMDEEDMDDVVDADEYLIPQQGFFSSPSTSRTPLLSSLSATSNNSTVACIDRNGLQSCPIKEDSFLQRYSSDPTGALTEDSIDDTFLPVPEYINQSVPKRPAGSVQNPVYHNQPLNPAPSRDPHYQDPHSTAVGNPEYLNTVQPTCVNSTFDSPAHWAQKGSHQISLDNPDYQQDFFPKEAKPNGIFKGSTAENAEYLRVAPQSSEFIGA

Sequence of HER2 (A775_G776insYVMA) expressing Ba/F3 stable cell line (P04626 with tags, fused parts or gaps DUP772-775): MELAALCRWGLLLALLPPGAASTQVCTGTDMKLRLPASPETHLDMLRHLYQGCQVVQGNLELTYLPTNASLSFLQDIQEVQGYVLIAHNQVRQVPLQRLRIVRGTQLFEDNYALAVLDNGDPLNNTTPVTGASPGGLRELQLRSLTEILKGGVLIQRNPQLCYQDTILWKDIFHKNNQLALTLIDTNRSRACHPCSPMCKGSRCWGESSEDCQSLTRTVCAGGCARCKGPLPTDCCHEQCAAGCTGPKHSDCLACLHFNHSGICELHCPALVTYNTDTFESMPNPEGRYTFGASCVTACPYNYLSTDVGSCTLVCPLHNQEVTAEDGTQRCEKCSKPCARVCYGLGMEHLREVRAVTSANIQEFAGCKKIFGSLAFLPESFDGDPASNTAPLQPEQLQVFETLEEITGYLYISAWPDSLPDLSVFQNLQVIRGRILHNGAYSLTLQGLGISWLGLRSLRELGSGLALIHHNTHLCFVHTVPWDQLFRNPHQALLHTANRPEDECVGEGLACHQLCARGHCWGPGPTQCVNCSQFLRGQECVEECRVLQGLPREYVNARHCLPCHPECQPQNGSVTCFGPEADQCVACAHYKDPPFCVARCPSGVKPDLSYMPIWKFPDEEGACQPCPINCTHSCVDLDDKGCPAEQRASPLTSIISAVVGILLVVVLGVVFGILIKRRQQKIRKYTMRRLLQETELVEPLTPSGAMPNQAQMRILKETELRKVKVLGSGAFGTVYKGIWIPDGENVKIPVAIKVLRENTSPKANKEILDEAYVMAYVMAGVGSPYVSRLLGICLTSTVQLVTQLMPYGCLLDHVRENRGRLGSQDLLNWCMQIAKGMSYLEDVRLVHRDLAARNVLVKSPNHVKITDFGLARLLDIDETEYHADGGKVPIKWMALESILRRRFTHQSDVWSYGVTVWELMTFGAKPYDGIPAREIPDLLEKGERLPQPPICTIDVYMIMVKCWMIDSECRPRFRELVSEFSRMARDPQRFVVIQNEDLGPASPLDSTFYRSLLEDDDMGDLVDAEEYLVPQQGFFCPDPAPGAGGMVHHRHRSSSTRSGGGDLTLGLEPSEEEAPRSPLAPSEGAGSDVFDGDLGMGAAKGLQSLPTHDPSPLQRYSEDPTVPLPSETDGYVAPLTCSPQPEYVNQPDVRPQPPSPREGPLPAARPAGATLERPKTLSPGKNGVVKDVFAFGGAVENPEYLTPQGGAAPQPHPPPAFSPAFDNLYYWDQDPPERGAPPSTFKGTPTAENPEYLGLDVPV
Sequence of EGFR (A767_dupASV) expressing Ba/F3 stable cell line (P00533 with tags, fused parts or gaps DUP767-769): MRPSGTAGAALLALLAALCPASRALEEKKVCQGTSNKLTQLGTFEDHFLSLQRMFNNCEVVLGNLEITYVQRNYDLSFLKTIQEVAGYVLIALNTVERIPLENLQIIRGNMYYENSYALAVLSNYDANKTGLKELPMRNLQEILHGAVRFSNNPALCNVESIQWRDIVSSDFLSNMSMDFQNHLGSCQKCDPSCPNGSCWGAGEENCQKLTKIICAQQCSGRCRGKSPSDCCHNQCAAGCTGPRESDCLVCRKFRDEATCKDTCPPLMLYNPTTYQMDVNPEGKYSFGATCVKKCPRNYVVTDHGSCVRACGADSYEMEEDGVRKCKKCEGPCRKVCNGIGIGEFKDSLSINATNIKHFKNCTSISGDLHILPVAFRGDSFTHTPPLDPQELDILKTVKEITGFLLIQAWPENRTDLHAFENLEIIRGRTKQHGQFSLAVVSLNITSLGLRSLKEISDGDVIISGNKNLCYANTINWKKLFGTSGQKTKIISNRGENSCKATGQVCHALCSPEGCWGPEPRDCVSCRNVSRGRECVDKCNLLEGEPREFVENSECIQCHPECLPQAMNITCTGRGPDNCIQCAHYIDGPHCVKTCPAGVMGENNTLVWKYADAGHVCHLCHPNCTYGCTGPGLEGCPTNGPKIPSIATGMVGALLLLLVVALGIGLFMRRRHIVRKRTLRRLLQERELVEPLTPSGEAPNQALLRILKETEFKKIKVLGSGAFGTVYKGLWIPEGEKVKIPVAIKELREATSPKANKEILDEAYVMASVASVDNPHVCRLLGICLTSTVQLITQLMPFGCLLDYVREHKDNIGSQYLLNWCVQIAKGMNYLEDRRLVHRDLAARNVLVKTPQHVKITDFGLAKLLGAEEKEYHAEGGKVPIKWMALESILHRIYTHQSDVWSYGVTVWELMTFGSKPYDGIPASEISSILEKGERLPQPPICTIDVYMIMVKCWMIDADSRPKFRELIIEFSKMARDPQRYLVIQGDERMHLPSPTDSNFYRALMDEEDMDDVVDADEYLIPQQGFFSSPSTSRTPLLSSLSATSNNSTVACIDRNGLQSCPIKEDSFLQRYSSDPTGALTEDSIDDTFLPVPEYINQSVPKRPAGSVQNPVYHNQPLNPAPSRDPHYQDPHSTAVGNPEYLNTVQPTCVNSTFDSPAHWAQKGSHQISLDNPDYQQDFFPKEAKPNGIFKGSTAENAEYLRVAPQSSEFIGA

Turning to `C=CC(=O)Nc1ccc(F)c(Nc2nc(Nc3cnn(C)c3)ncc2-c2cc(OC)ccc2Cl)c1` [Compound 8, N-(3-((5-(2-chloro-5-methoxyphenyl)-2-((1-methyl-1H-pyrazol-4-yl)amino)pyrimidin-4-yl)amino)-4-fluorophenyl)acrylamide], the GI50 in test [1] was determined as 749 nM; in test [2] it was 644 nM; in test [3] it was 1590 nM. Besides, the pIC50 in the test with A431 cells is less than 5.00.
Taken in the same sequence, the figures for `C=CC(=O)Nc1ccc(F)c(Nc2nc(Nc3cnn(C)c3)ncc2-c2cc(F)ccc2OC)c1` [Compound 9, N-(4-fluoro-3-((5-(5-fluoro-2-methoxyphenyl)-2-((1-methyl-1H-pyrazol-4-yl)amino)pyrimidin-4-yl)amino)phenyl)acrylamide] were 721 nM, 838 nM, 930 nM and less than 5.00.
Turning to `C=CC(=O)Nc1ccc(F)c(Nc2nc(Nc3cnn(C)c3)ncc2-c2ccc(OC)c(C(F)(F)F)c2)c1` [Compound 22, N-(4-fluoro-3-((5-(4-methoxy-3-(trifluoromethyl)phenyl)-2-((1-methyl-1H-pyrazol-4-yl)amino)pyrimidin-4-yl)amino)phenyl)acrylamide], the GI50 was 428 nM in test [1], 890 nM in test [2] and 329 nM in test [3]. In addition, in the test on A431 cells, the pIC50 is less than 5.00.
The matching figures for `C=CC(=O)Nc1ccc(F)c(Nc2nc(Nc3cnn(C)c3)ncc2-c2cc(C(F)(F)F)ccc2F)c1` [Compound 24, N-(4-fluoro-3-((5-(2-fluoro-5-(trifluoromethyl)phenyl)-2-((1-methyl-1H-pyrazol-4-yl)amino)pyrimidin-4-yl)amino)phenyl)acrylamide]: 321 nM, 588 nM, 300 nM and 5.03.
Taken in the same sequence, the figures for `C=CC(=O)Nc1ccc(F)c(Nc2nc(Nc3cnn(C)c3)ncc2-c2cnc(F)c(F)c2)c1` [Compound 29, N-(3-((5-(5,6-difluoropyridin-3-yl)-2-((1-methyl-1H-pyrazol-4-yl)amino)pyrimidin-4-yl)amino)-4-fluorophenyl)acrylamide] were 7 nM, 21 nM, 8 nM and 7.70.
The matching figures for `C=CC(=O)Nc1ccc(F)c(Nc2nc(Nc3cnn(C)c3)ncc2-c2cnc(Cl)c(C(F)(F)F)c2)c1` [Compound 44, N-(3-((5-(6-chloro-5-(trifluoromethyl)pyridin-3-yl)-2-((1-methyl-1H-pyrazol-4-yl)amino)pyrimidin-4-yl)amino)-4-fluorophenyl)acrylamidet]: 15 nM, 36 nM, 24 nM and 7.28.
`C=CC(=O)Nc1ccc(F)c(Nc2nc(Nc3cnn(C)c3)ncc2-c2c(F)cccc2OC)c1` [Compound 63, N-(4-fluoro-3-((5-(2-fluoro-6-methoxyphenyl)-2-((1-methyl-1H-pyrazol-4-yl)amino)pyrimidin-4-yl)amino)phenyl)acrylamide]: the GI50 in test [1] came out at 3090 nM; in test [2] it was 884 nM; in test [3], 3270 nM. Moreover, the pIC50 in the test on A431 cells was less than 5.00.
Take `C=CC(=O)Nc1ccc(F)c(Nc2nc(Nc3cnn(C)c3)ncc2-c2ccc(N3CCC3)c(F)c2)c1` [Compound 80, N-(3-((5-(4-(azetidin-1-yl)-3-fluorophenyl)-2-((1-methyl-1H-pyrazol-4-yl)amino)pyrimidin-4-yl)amino)-4-fluorophenyl)acrylamide]: the GI50 was 43 nM in test [1], 171 nM in test [2] and 95 nM in test [3]. The pIC50 in the test with A431 cells is 7.27.
Take `C=CC(=O)Nc1ccc(F)c(Nc2nc(Nc3cnn(CCN(C)C)c3)ncc2-c2ccc(N3CCCCC3)c(F)c2)c1` [Compound 82, N-(3-((2-((1-(2-(dimethylamino)ethyl)-1H-pyrazol-4-yl)amino)-5-(3-fluoro-4-(piperidin-1-yl)phenyl)pyrimidin-4-yl)amino)-4-fluorophenyl)acrylamide]: the values for the GI50 in test [1], in test [2] and in test [3] were 239 nM, 149 nM and 313 nM, respectively. Further, the pIC50 in the test with A431 cells is 6.40.
Taken in the same sequence, the figures for `C=CC(=O)Nc1ccc(F)c(Nc2nc(Nc3cnn(C)c3)ncc2-c2ccc(N3CCCCCC3)c(F)c2)c1` [Compound 85, N-(3-((5-(4-(azepan-1-yl)-3-fluorophenyl)-2-((1-methyl-1H-pyrazol-4-yl)amino)pyrimidin-4-yl)amino)-4-fluorophenyl)acrylamide] were 268 nM, 884 nM, 314 nM and 5.55.
The matching figures for `C=CC(=O)Nc1ccc(F)c(Nc2nc(Nc3cnn(C)c3)ncc2-c2cc(F)c(Br)c(F)c2)c1` [Compound 91, N-(3-((5-(4-bromo-3,5-difluorophenyl)-2-((1-methyl-1H-pyrazol-4-yl)amino)pyrimidin-4-yl)amino)-4-fluorophenyl)acrylamide]: 31 nM, 59 nM, 15 nM and 7.96.
Consider `C=CC(=O)Nc1ccc(F)c(Nc2nc(Nc3cnn(C4CCOC4)c3)ncc2-c2ccc(Br)c(F)c2)c1` (stereo not drawn) [Compound 93, N-(3-((5-(4-bromo-3-fluorophenyl)-2-((1-(tetrahydrofuran-3-yl)-1H-pyrazol-4-yl)amino)pyrimidin-4-yl)amino)-4-fluorophenyl)acrylamide], for which the GI50 in test [1] came out at 46 nM; in test [2] it was 173 nM; in test [3] it was 35 nM. Also, the pIC50 in the test on A431 cells is 7.48.
The matching figures for `C=CC(=O)Nc1ccc(F)c(Nc2nc(Nc3cnn(CCOC)c3)ncc2-c2ccc(Br)c(F)c2)c1` [Compound 95, N-(3-((5-(4-bromo-3-fluorophenyl)-2-((1-(2-methoxyethyl)-1H-pyrazol-4-yl)amino)pyrimidin-4-yl)amino)-4-fluorophenyl)acrylamide]: 43 nM, 197 nM, 29 nM and 5.32.
Taken in the same sequence, the figures for `C=CC(=O)Nc1cc(F)cc(Nc2nc(Nc3cnn(C)c3)ncc2-c2ccc(Br)c(F)c2)c1` [Compound 97, N-(3-((5-(4-bromo-3-fluorophenyl)-2-((1-methyl-1H-pyrazol-4-yl)amino)pyrimidin-4-yl)amino)-5-fluorophenyl)acrylamide] were 24 nM, 62 nM, 13 nM and 7.92.
The matching figures for `C=CC(=O)Nc1ccc(F)c(Nc2nc(Nc3cnn(CCOC)c3)ncc2-c2ccc(F)c(Cl)c2)c1` [Compound 100, N-(3-((5-(3-chloro-4-fluorophenyl)-2-((1-(2-methoxyethyl)-1H-pyrazol-4-yl)amino)pyrimidin-4-yl)amino)-4-fluorophenyl)acrylamide]: 301 nM, 860 nM, 274 nM and 5.92.
As to `[2H]C([2H])=CC(=O)Nc1ccc(F)c(Nc2nc(Nc3cnn(C)c3)ncc2-c2ccc(Br)c(F)c2)c1` [Compound 102, N-(3-((5-(4-bromo-3-fluorophenyl)-2-((1-methyl-1H-pyrazol-4-yl)amino)pyrimidin-4-yl)amino)-4-fluorophenyl)acrylamide-3,3-d2], the GI50 in test [1] is 30 nM; in test [2] it was 117 nM; in test [3] it was 35 nM. The pIC50 in the test with A431 cells is 7.16.
The matching figures for `C=CC(=O)Nc1ccc(F)c(Nc2nc(Nc3cn(C)nc3Cl)ncc2-c2cc(F)cc(F)c2)c1` [Compound 104, N-(3-((2-((3-chloro-1-methyl-1H-pyrazol-4-yl)amino)-5-(3,5-difluorophenyl)pyrimidin-4-yl)amino)-4-fluorophenyl)acrylamide]: 44 nM, 64 nM, 34 nM and 7.77.
Taken in the same sequence, the figures for `CN(C)C/C=C/C(=O)Nc1ccc(F)c(Nc2nc(Nc3cnn(C)c3)ncc2-c2ccc(Br)c(F)c2)c1` [Compound 105, (E)-N-(3-((5-(4-bromo-3-fluorophenyl)-2-((1-methyl-1H-pyrazol-4-yl)amino)pyrimidin-4-yl)amino)-4-fluorophenyl)-4-(dimethylamino)but-2-enamide] were 663 nM, 125 nM, 129 nM and 7.07.

Values taken from patent publication US20230416232A1, “PYRIMIDINE COMPOUNDS, COMPOSITIONS, AND MEDICINAL APPLICATIONS THEREOF” (Blueprint Medicines Corporation, priority 2020, published 2023).
